Experimental findings from PMC6321124, “Hydrophilic Linear Peptide with Histidine and Lysine Residues as a Key Factor Affecting Antifungal Activity” (International Journal of Molecular Sciences, 2018) are described below.

Structures are written as SMILES. Values after ≈ are worked out from the molar mass of the structure shown. Residues, ends and D or L forms follow the SMILES beside them.

Assay [1] has as its system C. albicans (CCARM 14020, fluconazole-resistant strain). Particulars: CCARM 14020, 48 h, pH 6.
For another assay, the system named is C. albicans (KCTC 7270). Particulars: KCTC 7270, 48 h, pH 6.
Assay [2] deals with Aspergillus flavus (KCTC 6905). Particulars: KCTC 6905, 48 h, pH 6.
For assay [3], the system named is C. albicans (CCARM 14004, fluconazole-resistant strain). Particulars: CCARM 14004, 48 h, pH 6.
In assay [4] the test system is C. albicans (CCARM 14007, amphotericin B-resistant strain). Particulars: CCARM 14007, 48 h, pH 6.
In assay [5] the test system is F. oxysporum (KCTC 16909). Particulars: KCTC 16909, 48 h, pH 6.
The subject of assay [6] is F. graminearum (KCTC 16656). Particulars: KCTC 16656, 48 h, pH 6.
In assay [7] the test system is F. moniliforme (KCTC 6149). Particulars: KCTC 6149, 48 h, pH 6.
The subject of assay [8] is Trichoderma virens (KCTC 16924). Particulars: KCTC 16924, 48 h, pH 6.
In assay [9] the test system is C. parapsilosis (CCARM 14016). Particulars: CCARM 14016, 48 h, pH 6.
Assay [10] deals with C. gloeosporioides (KCTC 6169). Particulars: KCTC 6169, 48 h, pH 6.
Assay [11] has as its system Tricophyton rubrum (KCTC 6345). Particulars: KCTC 6345, 48 h, pH 6.
Assay [12] concerns Trichoderma viride (KCTC 16992). Particulars: KCTC 16992, 48 h, pH 6.
Assay [13] deals with C. albicans (CCARM 14001, fluconazole-resistant strain). Particulars: CCARM 14001, 48 h, pH 6.
In another assay the test system is C. krusei (CCARM 14017). Particulars: CCARM 14017, 48 h, pH 6.
The next assay relates to F. solani (KCTC 6326). Particulars: KCTC 6326, 48 h, pH 6.

For orientation: MIC means the smallest concentration in the dilution series that meets the test's criterion for growth inhibition. Low values mean a more susceptible organism, high ones a less susceptible organism. Take `NCCCC[C@H](NC(=O)[C@H](CCCCN)NC(=O)[C@@H](N)Cc1c[nH]cn1)C(N)=O` [(HKK)1] (H-His-Lys-Lys-NH2): the MIC in [1] was determined as 1024 µM (≈ 420 µg/mL); in the assay with C. albicans (KCTC 7270), 1024 µM (≈ 420 µg/mL); in [2], 256 µM (≈ 105 µg/mL); in assay [3] it was 1024 µM (≈ 420 µg/mL); in [4], 1024 µM (≈ 420 µg/mL); in assay [5] it was 256 µM (≈ 105 µg/mL). For the same compound, the MIC in assay [6] was 512 µM (≈ 210 µg/mL); in assay [7] it was 256 µM (≈ 105 µg/mL); in assay [8], 512 µM (≈ 210 µg/mL); in assay [9] it was 1024 µM (≈ 420 µg/mL); in assay [10] it was 1024 µM (≈ 420 µg/mL); in [11] it was 512 µM (≈ 210 µg/mL). Also, the MIC in assay [12] is 256 µM (≈ 105 µg/mL); in [13] it was 1024 µM (≈ 420 µg/mL); in the assay with C. krusei (CCARM 14017) it was 512 µM (≈ 210 µg/mL); against F. solani (KCTC 6326) it was 256 µM (≈ 105 µg/mL).

For the compound `NCCCC[C@H](NC(=O)[C@H](CCCCN)NC(=O)[C@H](Cc1c[nH]cn1)NC(=O)[C@H](CCCCN)NC(=O)[C@H](CCCCN)NC(=O)[C@H](Cc1c[nH]cn1)NC(=O)[C@H](CCCCN)NC(=O)[C@H](CCCCN)NC(=O)[C@@H](N)Cc1c[nH]cn1)C(N)=O` [(HKK)3] (H-HKKHKKHKK-NH2), the MIC in [1] is 64 µM (≈ 76.6 µg/mL); against C. albicans (KCTC 7270), 64 µM (≈ 76.6 µg/mL); in assay [2] it was 16 µM (≈ 19.2 µg/mL); in assay [3], 64 µM (≈ 76.6 µg/mL); in assay [4] it was 64 µM (≈ 76.6 µg/mL); in assay [5] it was 32 µM (≈ 38.3 µg/mL). Moreover, the minimum inhibitory concentration (MIC) in assay [6] is listed as 32 µM (≈ 38.3 µg/mL); in [7] it was 16 µM (≈ 19.2 µg/mL); in [8], 16 µM (≈ 19.2 µg/mL); in [9] it was 32 µM (≈ 38.3 µg/mL); in assay [10] it was 8 µM (≈ 9.58 µg/mL); in [11], 32 µM (≈ 38.3 µg/mL). The MIC in assay [12] is 16 µM (≈ 19.2 µg/mL); in [13] it was 64 µM (≈ 76.6 µg/mL); against C. krusei (CCARM 14017), 16 µM (≈ 19.2 µg/mL); against F. solani (KCTC 6326), 16 µM (≈ 19.2 µg/mL).

`NCCCC[C@H](NC(=O)[C@H](CCCCN)NC(=O)[C@H](Cc1c[nH]cn1)NC(=O)[C@H](CCCCN)NC(=O)[C@H](CCCCN)NC(=O)[C@H](Cc1c[nH]cn1)NC(=O)[C@H](CCCCN)NC(=O)[C@H](CCCCN)NC(=O)[C@H](Cc1c[nH]cn1)NC(=O)[C@H](CCCCN)NC(=O)[C@H](CCCCN)NC(=O)[C@@H](N)Cc1c[nH]cn1)C(N)=O` [(HKK)4] (H-HKKHKKHKKHKK-NH2): the MIC in assay [1] is on record as 32 µM (≈ 50.9 µg/mL); in the assay with C. albicans (KCTC 7270), 32 µM (≈ 50.9 µg/mL); in assay [2], 8 µM (≈ 12.7 µg/mL); in assay [3], 32 µM (≈ 50.9 µg/mL); in assay [4], 32 µM (≈ 50.9 µg/mL); in [5] it was 4 µM (≈ 6.36 µg/mL). The MIC in [6] is reported as 16 µM (≈ 25.5 µg/mL); in [7], 4 µM (≈ 6.36 µg/mL); in assay [8], 16 µM (≈ 25.5 µg/mL); in assay [9] it was 32 µM (≈ 50.9 µg/mL); in assay [10], 2 µM (≈ 3.18 µg/mL); in [11], 16 µM (≈ 25.5 µg/mL). Besides, the MIC was found to be 4 µM (≈ 6.36 µg/mL) in [12], 32 µM (≈ 50.9 µg/mL) in assay [13], 4 µM (≈ 6.36 µg/mL) against C. krusei (CCARM 14017) and 4 µM (≈ 6.36 µg/mL) against F. solani (KCTC 6326).

In the case of `NCCCC[C@H](NC(=O)[C@H](CCCCN)NC(=O)[C@H](Cc1c[nH]cn1)NC(=O)[C@H](CCCCN)NC(=O)[C@H](CCCCN)NC(=O)[C@H](Cc1c[nH]cn1)NC(=O)[C@H](CCCCN)NC(=O)[C@H](CCCCN)NC(=O)[C@H](Cc1c[nH]cn1)NC(=O)[C@H](CCCCN)NC(=O)[C@H](CCCCN)NC(=O)[C@H](Cc1c[nH]cn1)NC(=O)[C@H](CCCCN)NC(=O)[C@H](CCCCN)NC(=O)[C@H](Cc1c[nH]cn1)NC(=O)[C@H](CCCCN)NC(=O)[C@H](CCCCN)NC(=O)[C@H](Cc1c[nH]cn1)NC(=O)[C@H](CCCCN)NC(=O)[C@H](CCCCN)NC(=O)[C@H](Cc1c[nH]cn1)NC(=O)[C@H](CCCCN)NC(=O)[C@H](CCCCN)NC(=O)[C@@H](N)Cc1c[nH]cn1)C(N)=O` [(HKK)8] (H-HKKHKKHKKHKKHKKHKKHKKHKK-NH2), the MIC in assay [1] turned out to be 8 µM (≈ 25.3 µg/mL); in the assay on C. albicans (KCTC 7270), 8 µM (≈ 25.3 µg/mL); in assay [2], 2 µM (≈ 6.33 µg/mL); in assay [3] it was 8 µM (≈ 25.3 µg/mL); in assay [4], 8 µM (≈ 25.3 µg/mL); in [5], 2 µM (≈ 6.33 µg/mL). Besides, the MIC in [6] is 4 µM (≈ 12.7 µg/mL); in [7], 2 µM (≈ 6.33 µg/mL); in assay [8] it was 4 µM (≈ 12.7 µg/mL); in [9], 8 µM (≈ 25.3 µg/mL); in assay [10], 1 µM (≈ 3.16 µg/mL); in [11], 2 µM (≈ 6.33 µg/mL). Further, the MIC in assay [12] amounted to 1 µM (≈ 3.16 µg/mL); in assay [13] it was 8 µM (≈ 25.3 µg/mL); against C. krusei (CCARM 14017), 4 µM (≈ 12.7 µg/mL); in the assay with F. solani (KCTC 6326) it was 1 µM (≈ 3.16 µg/mL).

Take `NCCCC[C@H](NC(=O)[C@H](CCCCN)NC(=O)[C@H](Cc1c[nH]cn1)NC(=O)[C@H](CCCCN)NC(=O)[C@H](CCCCN)NC(=O)[C@@H](N)Cc1c[nH]cn1)C(N)=O` [(HKK)2] (H-HKKHKK-NH2): the MIC (in assay [1]; against C. albicans (KCTC 7270); in assay [2]; in assay [3]; in assay [4]; in [5]) was 64 µM (≈ 51.5 µg/mL) each time. In addition, the MIC in assay [6] amounted to 64 µM (≈ 51.5 µg/mL); in assay [7] it was 32 µM (≈ 25.7 µg/mL); in assay [8] it was 32 µM (≈ 25.7 µg/mL); in assay [9], 64 µM (≈ 51.5 µg/mL); in assay [10], 16 µM (≈ 12.9 µg/mL); in [11], 64 µM (≈ 51.5 µg/mL). In addition, the MIC was 64 µM (≈ 51.5 µg/mL) in [12], 64 µM (≈ 51.5 µg/mL) in assay [13], 64 µM (≈ 51.5 µg/mL) against C. krusei (CCARM 14017) and 32 µM (≈ 25.7 µg/mL) in the assay on F. solani (KCTC 6326).

As to `NCCCC[C@H](NC(=O)[C@H](CCCCN)NC(=O)[C@H](Cc1c[nH]cn1)NC(=O)[C@H](CCCCN)NC(=O)[C@H](CCCCN)NC(=O)[C@H](Cc1c[nH]cn1)NC(=O)[C@H](CCCCN)NC(=O)[C@H](CCCCN)NC(=O)[C@H](Cc1c[nH]cn1)NC(=O)[C@H](CCCCN)NC(=O)[C@H](CCCCN)NC(=O)[C@H](Cc1c[nH]cn1)NC(=O)[C@H](CCCCN)NC(=O)[C@H](CCCCN)NC(=O)[C@H](Cc1c[nH]cn1)NC(=O)[C@H](CCCCN)NC(=O)[C@H](CCCCN)NC(=O)[C@@H](N)Cc1c[nH]cn1)C(N)=O` [(HKK)6] (H-HKKHKKHKKHKKHKKHKK-NH2), the MIC in assay [1] is 16 µM (≈ 38 µg/mL); with C. albicans (KCTC 7270) it was 16 µM (≈ 38 µg/mL); in [2], 4 µM (≈ 9.51 µg/mL); in assay [3], 16 µM (≈ 38 µg/mL); in assay [4] it was 16 µM (≈ 38 µg/mL); in assay [5] it was 2 µM (≈ 4.76 µg/mL). Further, the MIC came to 8 µM (≈ 19 µg/mL) in assay [6]; 2 µM (≈ 4.76 µg/mL) in assay [7]; 8 µM (≈ 19 µg/mL) in [8]; 16 µM (≈ 38 µg/mL) in assay [9]; 1 µM (≈ 2.38 µg/mL) in assay [10]; 8 µM (≈ 19 µg/mL) in assay [11]. The MIC in [12] stood at 2 µM (≈ 4.76 µg/mL); in [13] it was 16 µM (≈ 38 µg/mL); against C. krusei (CCARM 14017), 4 µM (≈ 9.51 µg/mL); with F. solani (KCTC 6326), 2 µM (≈ 4.76 µg/mL).
